Among the data in patent publication US20250332173A1, “COMPOUNDS AND METHODS FOR MODULATING NUCLEIC ACID SPLICING” (REMIX THERAPEUTICS INC., priority 2021, published 2025) are IC50 and GI50 values, retold here.

The subject of assay [1] is SMN2 mRNA. Put plainly: RT-qPCR splicing assay, SMN2 canonical junction (CJ) mRNA. The format is cell-based, human. Conditions: Homo sapiens; Table 5 panel; canonical junction qPCR; compound concentration having 50% response in CJ decrease; read-out: SMN2 IC50 (decrease in CJ mRNA levels). The gist of the method: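 K562/A673 cells, 11-pt 3-fold compound titration from 10 uM final, DMSO ≤0.25%, 24 h 37 °C 5% CO2; lyse (DNase I or Igepal/Tris buffer pH 7.4); RT-qPCR for CJ isoform vs housekeeping gene (GAPDH/GUSB/PPIA).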

The test system of assay [2] is HTT. Put plainly: HiBiT protein abundance assay, HTT HiBiT K562 cell line. The format is cell-based, human. Conditions: 24 hours, top dose 10 μM. In a few lines: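 Endogenous targets in K562 knock-in lines carried a HiBiT tag and were treated for 24 h at 37 °C with 10-point 3-fold dilutions (top 10 μM final, DMSO ≤0.25%). Abundance was read as lytic Nano-Glo HiBiT luminescence. IC50 came from a four-parameter logistic fit of normalized response.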
(The HiBiT peptide binds its large partner to form an active luciferase.)

For assay [3], the system named is K562 (human chronic myelogenous leukemia) cells. Put plainly: Cell Titer Glo 2.0 cell viability assay. It is filed as cell-based. Particulars: Homo sapiens, K562, 72 h, K562 cells, 72 hours, Cell Titer Glo 2.0; read-out: K562 GI50. In general terms: Cellular ATP, detected with luciferase, serves as a proxy for viable cell number.
The mark [4] stands for this setting: HiBiT K562 cell line, read-out: Effect on protein abundance, HTT (IC50 category).
Setting [5] is: HiBiT lytic detection, modified K562 cells, read-out: Effect on protein abundance, HTT (IC50).

Read-outs that look alike come from different tables or passages of the source. Where only a bound is given, the exact number is not on record here.

A word on the IC50: it is the concentration at which inhibition is half-maximal. As a reminder, the GI50 is the concentration giving 50% growth inhibition. In the case of `Cc1cn2nc(-c3cc4ccn([C@@H]5CCNC5)c(=O)c4cc3O)cc(C)c2n1` [Compound 640, 6-(2,8-dimethylimidazo[1,2-b]pyridazin-6-yl)-7-hydroxy-2-[(3R)-pyrrolidin-3-yl]isoquinolin-1-one], the IC50 in assay [1] is less than 0.1 µM; in assay [2] (setting [4]), 1 to 10 µM. The concentration for 50% growth inhibition (GI50) in assay [3] lay within 0.1 to 1 µM.

Take `Cc1cn2nc(-c3cc4ccn([C@H]5CCNC5)c(=O)c4cc3O)cc(C)c2n1` [Compound 641, 6-(2,8-dimethylimidazo[1,2-b]pyridazin-6-yl)-7-hydroxy-2-[(3S)-pyrrolidin-3-yl]isoquinolin-1-one]: the IC50 in assay [1] was less than 0.1 µM; in assay [2] (setting [4]), 0.1 to 1 µM. Besides, the 50% growth inhibitory concentration (GI50) in assay [3] is 0.1 to 1 µM.

With `Cc1cn2cc(-c3cc(F)c4c(=O)n([C@@H]5C[C@@H](C)N[C@@H](C)C5)ccc4c3)cc(F)c2n1` [Compound 642, 2-[(2S,6R)-2,6-dimethyl-4-piperidyl]-8-fluoro-6-(8-fluoro-2-methyl-imidazo[1,2-a]pyridin-6-yl)isoquinolin-1-one], the IC50 is less than 0.1 µM in assay [1] and 0.1 to 1 µM in assay [2] (setting [4]). In assay [3], the concentration for 50% growth inhibition (GI50) lay within 1 to 10 µM.

Take `Cc1cn2cc(-c3cc(F)c4c(=O)n([C@H]5CNC[C@@H]5F)ccc4c3)cc(F)c2n1` [Compound 644]: the results for the IC50 in assay [1] and in assay [2] (setting [4]) were 0.1 to 1 µM and more than 10 µM, respectively. The concentration for 50% growth inhibition (GI50) in assay [3] fell in the range of 1 to 10 µM.

Take `Cc1cn2nc(-c3cc(N)c4c(=O)n([C@H]5CCNC5)ccc4c3)cc(C)c2n1` [Compound 645, 8-amino-6-(2,8-dimethylimidazo[1,2-b]pyridazin-6-yl)-2-[(3S)-pyrrolidin-3-yl]isoquinolin-1-one]: the figures for the IC50 in assay [1] and in assay [2] (setting [4]) were 0.1 to 1 µM and 1 to 10 µM, respectively. Besides, the GI50 in assay [3] lay within 1 to 10 µM.

In the case of `Cc1cn2nc(-c3cc(N)c4c(=O)n([C@@H]5CCNC5)ccc4c3)cc(C)c2n1` [Compound 646, 8-amino-6-(2,8-dimethylimidazo[1,2-b]pyridazin-6-yl)-2-[(3R)-pyrrolidin-3-yl]isoquinolin-1-one], the half-maximal inhibitory concentration (IC50) in assay [1] is 0.1 to 1 µM; in assay [2] (setting [4]) it was more than 10 µM. The concentration for 50% growth inhibition (GI50) in assay [3] was in the range of 1 to 10 µM.

As to `CNc1cc(-c2cc(C)c3nc(C)cn3n2)cc2ccn([C@H]3CCNC3)c(=O)c12` [Compound 647, 6-(2,8-dimethylimidazo[1,2-b]pyridazin-6-yl)-8-(methylamino)-2-[(3S)-pyrrolidin-3-yl]isoquinolin-1-one], the IC50 in assay [1] was 0.1 to 1 µM; in assay [2] (setting [4]) it was 1 to 10 µM. For the same molecule, the GI50 in assay [3] fell in the range of 1 to 10 µM.

Regarding `CNc1cc(-c2cc(C)c3nc(C)cn3n2)cc2ccn([C@@H]3CCNC3)c(=O)c12` [Compound 648, 6-(2,8-dimethylimidazo[1,2-b]pyridazin-6-yl)-8-(methylamino)-2-[(3R)-pyrrolidin-3-yl]isoquinolin-1-one], the concentration for half-maximal inhibition (IC50) was 0.1 to 1 µM in assay [1] and more than 10 µM in assay [2] (setting [4]). In assay [3], the 50% growth inhibitory concentration (GI50) lay in the range of 1 to 10 µM.

Regarding `CC(=O)Nc1cc(-c2cc(C)c3nc(C)cn3n2)cc2ccn([C@H]3CCNC3)c(=O)c12` [Compound 649, N-[6-(2,8-dimethylimidazo[1,2-b]pyridazin-6-yl)-1-oxo-2-[(3S)-pyrrolidin-3-yl]-8-isoquinolyl]acetamide], the IC50 in assay [1] is 0.1 to 1 µM; in assay [2] (setting [4]), 1 to 10 µM. Further, in assay [3], the GI50 lay in the range of 1 to 10 µM.

Regarding `CC(=O)Nc1cc(-c2cc(C)c3nc(C)cn3n2)cc2ccn([C@@H]3CCNC3)c(=O)c12` [Compound 650, N-[6-(2,8-dimethylimidazo[1,2-b]pyridazin-6-yl)-1-oxo-2-[(3R)-pyrrolidin-3-yl]-8-isoquinolyl]acetamide], the IC50 is 1 to 10 µM in assay [1] and more than 10 µM in assay [2] (setting [4]). Also, the 50% growth inhibitory concentration (GI50) in assay [3] is 1 to 10 µM.

Regarding `Cc1cn2cc(-c3cc(F)c4c(=O)n(C5CC(C)NC(C)C5)ccc4c3)cc(F)c2n1` (stereo not drawn) [Compound 651], the IC50 in assay [1] and in assay [2] (setting [4]) was less than 0.1 µM each time. For the same molecule, the GI50 in assay [3] was less than 0.1 µM.

Turning to `Cc1cn2cc(-c3cc(F)c4c(=O)n([C@H]5CNC[C@H]5C)ccc4c3)cc(F)c2n1` [Compound 652, 8-fluoro-6-(8-fluoro-2-methyl-imidazo[1,2-a]pyridin-6-yl)-2-[(3R,4R)-4-methylpyrrolidin-3-yl]isoquinolin-1-one], the half-maximal inhibitory concentration (IC50) in assay [1] was 0.1 to 1 µM; in assay [2] (setting [4]), more than 10 µM. Moreover, in assay [3], the GI50 was 1 to 10 µM.

On to `Cc1cn2cc(-c3cc(F)c4c(=O)n([C@@H]5CNC[C@@H]5C)ccc4c3)cc(F)c2n1` [Compound 653, 8-fluoro-6-(8-fluoro-2-methyl-imidazo[1,2-a]pyridin-6-yl)-2-[(3S,4S)-4-methylpyrrolidin-3-yl]isoquinolin-1-one], for which the half-inhibitory concentration (IC50) was 0.1 to 1 µM in assay [1] and more than 10 µM in assay [2] (setting [4]). For the same molecule, in assay [3], the GI50 was more than 10 µM.

In the case of `Cn1cc2cc(-c3ncc4c(=O)n(C5CCNCC5)ccc4n3)c(O)c(F)c2n1` [Compound 1123], the 50% inhibitory concentration (IC50) in assay [1] and in assay [2] (setting [4]) was less than 0.1 µM each time. In assay [3], the GI50 was less than 0.1 µM.

Turning to `CNC1CCN(c2ccc3cc(-c4cc(C)c5nc(C)cn5n4)ccn3c2=O)C1` (stereo not drawn) [Compound 1158], the 50% inhibitory concentration (IC50) was less than 0.1 µM in assay [1] and 0.1 to 1 µM in assay [2] (setting [5]). The GI50 in assay [3] was in the range of 0.1 to 1 µM.

Take `Cc1cn2nc(-c3ccn4c(=O)c(C5CCNCC5)ccc4c3)cc(C)c2n1` [Compound 1181]: the IC50 in assay [1] and in assay [2] (setting [5]) was less than 0.1 µM in each case. The concentration for 50% growth inhibition (GI50) in assay [3] is less than 0.1 µM.

In the case of `Cc1cn2nc(-c3ccn4c(=O)c(C5=CCNCC5)ncc4c3)cc(C)c2n1` [Compound 1182], the 50% inhibitory concentration (IC50) in assay [1] and in assay [2] (setting [5]) was 0.1 to 1 µM throughout. The concentration for 50% growth inhibition (GI50) in assay [3] lay in the range of 0.1 to 1 µM.
